For orientation: IC50 means the midpoint of a concentration-inhibition curve.

Consider two compounds from patent US12458647B2, “Macrocyclic derivative and use thereof” (Guangzhou Joyo Pharmatech Co., Ltd., priority 2022, dated 2025).

What all share (assay type): cell-based
In one test the test system is AsPC-1 cells. In words: In vitro cell proliferation experiment (5 days), AsPC-1. Particulars: AsPC-1, 5 days; read-out: Inhibitory Activity IC50. The method, then: (§1) RPMI 1640 medium, DMEM, Ham's F12 medium, F12K medium, IMDM and penicillin/streptomycin antibiotics were purchased from Gibco, fetal bovine serum was purchased from Hyclone, Envision multilabel plate reader (PerkinElmer). […]
(§2) The test compound was diluted by 5-fold to 8 concentrations with a pipette, i.e., from 2 mM to 25.6 nM, and replicate wells were set up for the experiment. […] Another cell plate was prepared, and the signal value was read as the maximum value (the maximum value in the following equation) on the day of dosing for data analysis.
(§3) 50 μL of cell viability chemiluminescent detection reagent was added to the cell plate and incubated at room temperature for 30 minutes to stabilize the luminescence signal. A multilabel plate reader was used for reading. […]

Another test has as its system PSN-1 cell line. In words: In vitro cell proliferation experiment (5 days), PSN-1. Particulars: PSN-1, 5 days; read-out: Inhibitory Activity IC50. Here is the method: as §1, §2, §3
For a further test, the system named is RKN cell line. As to the kind of experiment: In vitro cell proliferation experiment (5 days), RKN. Particulars: read-out: Inhibitory Activity IC50. The method, then:
as §1, §2, §3

The test system of another test is LOVO cells. As to the kind of experiment: In vitro cell proliferation experiment (5 days), LOVO. The following applies: read-out: Inhibitory Activity IC50. Here is the method:
as §1, §2, §3

A further test deals with GP2D cell line. In words: In vitro cell proliferation experiment (5 days, 3D CellTiter-Glo), GP2D. The following applies: read-out: Inhibitory Activity IC50. Here is the method:
as §1, §2, §3
(In general: ATP-based viability assays read luminescence as a measure of living cells.)

A further test deals with HCT116 cells. In words: In vitro cell proliferation experiment (5 days), HCT116. Particulars: HCT116, 5 days; read-out: Inhibitory Activity IC50. The method, then: as §1, §2, §3
For the next test, the system named is NCI—H441 cells. In words: In vitro cell proliferation experiment (5 days), H441. The following applies: H441, 5 days; read-out: Inhibitory Activity IC50. Here is the method: as §1, §2, §3
The subject of the next test is LU99 cell line. As to the kind of experiment: In vitro cell proliferation experiment (5 days), LU99. The following applies: LU99, 5 days; read-out: Inhibitory Activity IC50. The method, then:
as §1, §2, §3

Test [1] relates to p-ERK level in AsPC-1 cells. As to the kind of experiment: Detection of p-ERK level in AsPC-1 cells (HTRF). The following applies: 3 hours incubation; read-out: AsPC-1 pERK IC50. Here is the method: AsPC-1 cells were purchased from ATCC: RPMI-1640 medium was purchased from Gibco; fetal bovine serum was purchased from Hyclone; Advanced Phospho-ERK1/2(THR202/TYR204) KIT was purchased from Bioauxilium-Advanced Phospho; ERK1/2(THR202/TYR204) KIT components were: Advanced PhosphoERK1/2 Eu Cryptate antibody, Advanced PhosphoERK1/2 d2 antibody, Blocking reagent (stock solution 100×), Lysis buffer #1 (stock solution 4×). Detection buffer (ready-to-use), with a storage temperature of ≤−16° C. for all.
(1) The cells were seeded in a white-bottomed 384-well cell culture plate, 8 μL of cell suspension per well, each well containing 7,500 cells. The cell plate was placed in a carbon dioxide incubator and incubated overnight at 37° C.;
(2) The test compound was diluted with 100% DMSO to 3 mM as the first concentration, and then diluted with a pipette to 10 concentrations of 3,000, 1,000, 300, 100, 30, 10, 3, 1, 0.3 and 0.1 μM. 2 μL of the compound was taken and added to 198 μL of cell starvation medium, mixed well, 15 μl, of compound solution was taken and added to 35 μL of cell starvation medium and mixed well. […]
(5) After incubation, a multilabel plate reader was used to read the HTRF excitation: 320 nm, emission: 615 nm, and 665 nm. […]
A general note: TR-FRET usually uses a lanthanide donor and a delayed reading to cut background.

`CCn1c(-c2cc(N3CCN(C)CC3)cnc2C(C)OC)c2c3cc(ccc31)-c1csc(n1)CC(NC(=O)C1CC1C)C(=O)N1NC(C(=O)OCC(C)(C)C2)C2CC1C2` (single isomer, unassigned) [Compound 7A]: the IC50 in the test with AsPC-1 cells was 6.6 nM; in the test with PSN-1 cell line it was 10.5 nM; in the test with RKN cell line, 7.5 nM; in the test on LOVO cells, 5.9 nM.

Regarding `CCn1c(-c2cc(N3CCN(C)CC3)cnc2C(C)OC)c2c3cc(ccc31)-c1csc(n1)CC(NC(=O)C1C(C)C1C)C(=O)N1NC(C(=O)OCC(C)(C)C2)C2CC1C2` (single isomer, unassigned) [Compound 6A], the 50% inhibitory concentration (IC50) in the test on GP2D cell line is 0.9 nM; with AsPC-1 cells, 2.1 nM; with PSN-1 cell line, 5.3 nM; in the test on RKN cell line, 4.5 nM; in the test with HCT116 cells, 5.5 nM; in the test on LOVO cells, 2.8 nM. Further, the IC50 was 1.4 nM with NCI—H441 cells, 8.7 nM in the test on LU99 cell line and 0.3 nM in [1].
